One test deals with T1, Human Axl (Homo sapiens, UniProt P30530, Q764R).
T1 construct: Human Axl (residues H473-A894 with Q764R, 161 nM); purchased Eurofins Pharma Discovery Services UK Limited (KinaseProfiler service)
T1 sequence (P30530 473-894 Q764R): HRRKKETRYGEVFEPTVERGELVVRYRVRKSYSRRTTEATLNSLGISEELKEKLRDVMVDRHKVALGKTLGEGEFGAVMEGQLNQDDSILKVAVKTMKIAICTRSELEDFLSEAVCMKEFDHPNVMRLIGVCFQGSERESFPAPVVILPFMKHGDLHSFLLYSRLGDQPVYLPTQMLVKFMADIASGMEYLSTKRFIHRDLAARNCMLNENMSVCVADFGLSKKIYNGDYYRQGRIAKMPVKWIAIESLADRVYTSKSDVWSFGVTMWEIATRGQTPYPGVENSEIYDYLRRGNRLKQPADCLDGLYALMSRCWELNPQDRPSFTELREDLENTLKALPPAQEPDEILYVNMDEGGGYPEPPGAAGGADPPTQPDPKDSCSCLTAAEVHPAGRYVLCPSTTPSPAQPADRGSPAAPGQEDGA
Briefly: Human AXL kinase assay (33P-phosphoryl transfer radiometric, KinaseProfiler). The conditions noted are these: biochemical activity; 10 μM ATP. As for the experimental part: (§1) Kinase activity and compound inhibition were investigated using the ^33P-Phosphoryl transfer radiometric kinase assay, performed using the KinaseProfiler™ service of Eurofins Pharma Discovery Services UK Limited. Dose-response experiments were performed using nine compound concentrations in a 96-well microtiter plate. For each assay, all compounds were prepared to a 50× final assay concentration (50 μM) in 100% DMSO, then diluted in a half-log series, with the final top concentration at 1 μM. This working stock of the compound was added to the assay well as the first component in the reaction, followed by the remaining components as detailed in the following assay protocols below. The positive control wells (100% kinase activity) contain all components of the reaction including 2% DMSO (control for solvent effects), except the compound of interest. Blank wells contain all components of the reaction, with the reference inhibitor, staurosporine. This reference compound was used to abolish kinase activity and generated the 0% kinase activity base-line. IC50 values were calculated by nonlinear regression analysis using the sigmoidal dose-response (variable slope) curve fit on XLFit version 5.3 (ID Business Solutions).
(§2) Human Axl (residues H473-A894 with Q764R, 161 nM) was incubated with 8 mM MOPS pH 7.0, 0.2 mM EDTA, 250 μM KKSRGDYMTMQIG, 10 mM magnesium acetate, and 10 μM [y-^33P-ATP]. The reaction was initiated by the addition of the Mg/ATP mix. After incubation for 40 minutes at room temperature, the reaction was stopped by the addition of phosphoric acid to a concentration of 0.5%. A reaction aliquot of 10 μL was then spotted onto a P30 filtermat and washed four times for 4 minutes in 0.425% phosphoric acid and once in methanol prior to drying and scintillation counting. Incorporated ^33P was measured using the Wallac Microbeta scintillation counter (Perkin Elmer).

The target of the next test is KDR (Homo sapiens, UniProt P35968). The experiment in a line: Human KDR kinase assay (33P-phosphoryl transfer radiometric, KinaseProfiler). The settings on record: biochemical activity; 10 μM ATP. More on the design: Human KDR (residues K790-V1356, 55 nM); purchased Eurofins Pharma Discovery Services UK Limited (KinaseProfiler service). As for the experimental part:
as §1
as §2, with “KDR” for “Axl”, “K790-V1356, 55” for “H473-A894 with Q764R, 161”, “0.33 mg/mL myelin basic protein,” for “250 μM KKSRGDYMTMQIG,”, “[γ-^33P-ATP].” for “[y-^33P-ATP].”

pIC50: −log10 of the molar value.

Sequence of KDR (P35968 790-1356): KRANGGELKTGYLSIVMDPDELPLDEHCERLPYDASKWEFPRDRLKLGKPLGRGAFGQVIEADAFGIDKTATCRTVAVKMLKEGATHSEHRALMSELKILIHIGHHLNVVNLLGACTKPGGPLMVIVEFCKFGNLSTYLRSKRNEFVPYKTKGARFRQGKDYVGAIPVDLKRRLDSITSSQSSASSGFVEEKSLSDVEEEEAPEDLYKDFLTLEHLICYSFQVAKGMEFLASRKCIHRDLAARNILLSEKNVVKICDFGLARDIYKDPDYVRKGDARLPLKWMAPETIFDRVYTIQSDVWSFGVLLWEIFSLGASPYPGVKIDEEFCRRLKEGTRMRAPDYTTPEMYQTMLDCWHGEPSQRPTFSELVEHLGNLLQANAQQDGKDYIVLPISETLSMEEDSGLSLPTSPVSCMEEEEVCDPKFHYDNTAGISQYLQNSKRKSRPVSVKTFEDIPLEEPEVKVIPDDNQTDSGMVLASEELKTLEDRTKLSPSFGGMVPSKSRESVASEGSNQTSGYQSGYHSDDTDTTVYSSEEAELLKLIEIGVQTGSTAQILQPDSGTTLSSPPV

A word on the pIC50: it is the IC50 on a negative log10 scale, so that one unit is a factor of ten. Read a low pIC50 as a large IC50. With `Cn1ccc(-c2ccc3c(Oc4ccc(NC(=O)C5(C(=O)Nc6ccc(F)cc6)CC5)cc4)ccnc3c2)n1` [Compound 17, 1-N′-(4-Fluorophenyl)-1-N-[4-[7-(1-methylpyrazol-3-yl)quinolin-4-yl]oxyphenyl]cyclopropane-1,1-dicarboxamide], the pIC50 against Human Axl and at KDR was 7.00 to 8.00 in each case.
In the case of `O=C(Nc1ccc(F)cc1)C1(C(=O)Nc2ccc(Oc3ccnc4cc(-c5cnn(C(F)F)c5)ccc34)cc2)CC1` [Compound 13, 1-N-[4-[7-[1-(Difluoromethyl)pyrazol-4-yl]quinolin-4-yl]oxyphenyl]-1-N′-(4-fluorophenyl)cyclopropane-1,1-dicarboxamide], the pIC50 on Human Axl and against KDR was 7.00 to 8.00 each time.
Turning to `O=C(Nc1ccc(F)cc1)C1(C(=O)Nc2ccc(Oc3ccnc4cc(-c5ccnnc5)ccc34)cc2)CC1` [Compound 28, 1-N′-(4-Fluorophenyl)-1-N-[4-(7-pyridazin-4-ylquinolin-4-yl)oxyphenyl]cyclopropane-1,1-dicarboxamide], the pIC50 on Human Axl and against KDR was 7.00 to 8.00 each time.
In the case of `Cn1cc(-c2ccc3c(Oc4ccc(NC(=O)C5(C(=O)Nc6ccc(F)cc6)CC5)cc4)ccnc3c2)cn1` [Compound 11, 1-N′-(4-Fluorophenyl)-1-N-[4-[7-(1-methylpyrazol-4-yl)quinolin-4-yl]oxyphenyl]cyclopropane-1,1-dicarboxamide], the results for the pIC50 against Human Axl and on KDR were at least 8.00 and 7.00 to 8.00, respectively.
The matching figures for `O=C(Nc1ccc(F)cc1)C1(C(=O)Nc2ccc(Oc3ccnc4cc(-c5cnn(CCO)c5)ccc34)cc2)CC1` [Compound 18, 1-N′-(4-Fluorophenyl)-1-N-[4-[7-[1-(2-hydroxyethyl)pyrazol-4-yl]quinolin-4-yl]oxyphenyl]cyclopropane-1,1-dicarboxamide]: at least 8.00 and at least 8.00.
The matching figures for `O=C(Nc1ccc(F)cc1)C1(C(=O)Nc2ccc(Oc3ccnc4cc(-c5cnn(C(F)(F)F)c5)ccc34)cc2)CC1` [Compound 12, 1-N′-(4-Fluorophenyl)-1-N-[4-[7-[1-(trifluoromethyl)pyrazol-4-yl]quinolin-4-yl]oxyphenyl]cyclopropane-1,1-dicarboxamide]: 7.00 to 8.00 and 7.00 to 8.00.
For `CCn1cc(-c2ccc3c(Oc4ccc(NC(=O)C5(C(=O)Nc6ccc(F)cc6)CC5)cc4)ccnc3c2)cn1` [Compound 20, 1-N-[4-[7-(1-Ethylpyrazol-4-yl)quinolin-4-yl]oxyphenyl]-1-N′-(4-fluorophenyl)cyclopropane-1,1-dicarboxamide] the same measures were at least 8.00 and 7.00 to 8.00.
In the case of `Cc1cc(F)cc(C)c1NC(=O)C1(C(=O)Nc2ccc(Oc3ccnc4cc(-c5cnn(C)c5)ccc34)cc2)CC1` [Compound 82, 1-N′-(4-Fluoro-2,6-dimethylphenyl)-1-N-[4-[7-(1-methylpyrazol-4-yl)quinolin-4-yl]oxyphenyl]cyclopropane-1,1-dicarboxamide], the pIC50 at Human Axl and on KDR was 7.00 to 8.00 in each case.
For `O=C(Nc1ccc(F)cc1)C1(C(=O)Nc2ccc(Oc3ccnc4cc(-c5cccnc5)ccc34)cc2)CC1` [Compound 25, 1-N′-(4-Fluorophenyl)-1-N-[4-(7-pyridin-3-ylquinolin-4-yl)oxyphenyl]cyclopropane-1,1-dicarboxamide], the pIC50 against Human Axl and against KDR was 7.00 to 8.00 throughout.
`CN(C(=O)C1(C(=O)Nc2ccc(Oc3ccnc4cc(-c5cnn(C)c5)ccc34)cc2)CC1)c1ccc(F)cc1` [Compound 82A, 1-N′-(4-Fluorophenyl)-1-N′-methyl-1-N-[4-[7-(1-methylpyrazol-4-yl)quinolin-4-yl]oxyphenyl]cyclopropane-1,1-dicarboxamide]: the pIC50 against Human Axl and against KDR was 6.00 to 7.00 each time.
With `COCCn1cc(-c2ccc3c(Oc4ccc(NC(=O)C5(C(=O)Nc6ccc(F)cc6)CC5)cc4)ccnc3c2)cn1` [Compound 10, 1-N′-(4-Fluorophenyl)-1-N-[4-[7-[1-(2-methoxyethyl)pyrazol-4-yl]quinolin-4-yl]oxyphenyl]cyclopropane-1,1-dicarboxamide], the pIC50 on Human Axl is at least 8.00; on KDR it was 7.00 to 8.00.
Take `CNC(=O)c1cc2c(Oc3ccc(NC(=O)C4(C(=O)Nc5ccc(F)cc5)CC4)cc3)ccnc2cc1-c1cnn(C)c1` [Compound 77, 1-N′-(4-Fluorophenyl)-1-N-[4-[6-(methylcarbamoyl)-7-(1-methylpyrazol-4-yl)quinolin-4-yl]oxyphenyl]cyclopropane-1,1-dicarboxamide]: the pIC50 against Human Axl and on KDR was 7.00 to 8.00 each time.
In the case of `CC(C)(C)n1cc(-c2ccc3c(Oc4ccc(NC(=O)C5(C(=O)Nc6ccc(F)cc6)CC5)cc4)ccnc3c2)cn1` [Compound 23, 1-N-[4-[7-(1-tert-Butylpyrazol-4-yl)quinolin-4-yl]oxyphenyl]-1-N′-(4-fluorophenyl)cyclopropane-1,1-dicarboxamide], the pIC50 on Human Axl and against KDR was 7.00 to 8.00 throughout.
`O=C(Nc1ccc(F)cc1)C1(C(=O)Nc2ccc(Oc3ccnc4cc(-c5ccncc5)ccc34)cc2)CC1` [Compound 26, 1-N′-(4-Fluorophenyl)-1-N-[4-(7-pyridin-4-ylquinolin-4-yl)oxyphenyl]cyclopropane-1,1-dicarboxamide]: the pIC50 on Human Axl and at KDR was 7.00 to 8.00 each time.
As to `O=C(Nc1ccc(F)cc1)C1(C(=O)Nc2ccc(Oc3ccnc4cc(-c5ccn[nH]5)ccc34)cc2)CC1` [Compound 68, 1-N′-(4-Fluorophenyl)-1-N-[4-[7-(1H-pyrazol-5-yl)quinolin-4-yl]oxyphenyl]cyclopropane-1,1-dicarboxamide], the pIC50 against Human Axl and against KDR was 7.00 to 8.00 throughout.
As to `O=C(Nc1ccc(F)cc1)C1(C(=O)Nc2ccc(Oc3ccnc4cc(-c5ncc[nH]5)ccc34)cc2)CC1` [Compound 74, 1-N′-(4-Fluorophenyl)-1-N-[4-[7-(1H-imidazol-2-yl)quinolin-4-yl]oxyphenyl]cyclopropane-1,1-dicarboxamide], the pIC50 was at least 8.00 at Human Axl and 7.00 to 8.00 against KDR.
The matching figures for `O=C(Nc1ccc(F)cc1)C1(C(=O)Nc2ccc(Oc3ccnc4cc(-c5cnn(C6CC6)c5)ccc34)cc2)CC1` [Compound 22, 1-N-[4-[7-(1-Cyclopropylpyrazol-4-yl)quinolin-4-yl]oxyphenyl]-1-N′-(4-fluorophenyl)cyclopropane-1,1-dicarboxamide]: 7.00 to 8.00 and 7.00 to 8.00.
The matching figures for `O=C(Nc1ccc(F)cc1)C1(C(=O)Nc2ccc(Oc3ccnc4cc(-c5cncnc5)ccc34)cc2)CC1` [Compound 27, 1-N′-(4-Fluorophenyl)-1-N-[4-(7-pyrimidin-5-ylquinolin-4-yl)oxyphenyl]cyclopropane-1,1-dicarboxamide]: at least 8.00 and at least 8.00.
The matching figures for `O=C(Nc1ccc(F)cc1)C1(C(=O)Nc2ccc(Oc3ccnc4cc(-c5cnn[nH]5)ccc34)cc2)CC1` [Compound 65, 1-N′-(4-Fluorophenyl)-1-N-[4-[7-(1H-triazol-5-yl)quinolin-4-yl]oxyphenyl]cyclopropane-1,1-dicarboxamide]: 6.00 to 7.00 and 6.00 to 7.00.
Regarding `CN1CCC(n2cc(-c3ccc4c(Oc5ccc(NC(=O)C6(C(=O)Nc7ccc(F)cc7)CC6)cc5)ccnc4c3)cn2)CC1` [Compound 61, 1-N′-(4-Fluorophenyl)-1-N-[4-[7-[1-(1-methylpiperidin-4-yl)pyrazol-4-yl]quinolin-4-yl]oxyphenyl]cyclopropane-1,1-dicarboxamide], the figures for the pIC50 against Human Axl and on KDR were at least 8.00 and 7.00 to 8.00, respectively.

These data come from US12503438B2, “Compounds for the treatment of kinase-dependent disorders” (Exelixis, Inc., priority 2019, dated 2025).
